In patent US11491155B2, “Salt of a pyrimido[6,1-A]isoquinolin-4-one compound” (VERONA PHARMA PLC, priority 2015, dated 2022):
Like-named read-outs stand apart in the source and are kept apart here.

Tests used:
[1] = Solubility of RPL554 salts in saline solutions, water and aqueous buffer solutions at 25° C. (HPLC); type: physicochemical; settings: 24 hours; for Solubility as RPL554 (mg/ml) in Water: deionised water
Protocol: The behaviour of salts of RPL554 were examined under the following conditions: • Phosphate buffered to pH 3.5 in saline, 0.9% w/w at 25° C. • Acetate buffered to pH 4.5 in saline, 0.9% w/w at 25° C. • Citro-Phosphate buffered to pH 4.5 in saline, 0.9% w/w at 25° C. • Phosphate buffered to pH 6.5 in saline, 0.9% w/w at 25° C. • Saline, 0.7, 0.9 and 1.1% w/w at 25° C. • Deionised water at 25° C.
RPL554 salts and RPL554, ca 50 mg, were suspended in the various aqueous media, 1 ml, with agitation at the specified temperatures for 24 hours. The solids were isolated and dried in vacuo at 45° C. The retained filtrates were examined by HPLC.
Additional RPL554 methane sulfonate salt, ca 50 mg, was charged to the water mixtures at 25° C. and 37.5° C. in order to afford a suspension. In all other cases, suspensions were obtained.
The solubility of the RPL554 was determined by HPLC using a single point calibration and is expressed as RPL554 and not as the salt and are detailed in Table 6 and Table 7 for the various conditions utilised.

[2] = Intrinsic dissolution of compressed tablet, pH 7.0, 37° C. (Sirius inForm); type: physicochemical; settings: for mass dissolved: initial peak; for Mass of salt (μg) dissolved after 2 hours, Average / Mass of salt (μg) dissolved after 2 hours, Test 1 / Mass of salt (μg) dissolved after 2 hours, Test 2: pH 7.0, 0.15 M NaCl, 37° C.
Protocol: The dissolution assay (pH-dependent sample dissolution) was investigated using the Sirius inForm.
Dissolution of a compressed tablet of the compound was monitored in a pH 7.0 aqueous dissolution experiment (0.15 M NaCl) at 37° C. using UV-absorption spectroscopy in 2 hour experiments. A tablet with a diameter of 3 mm, requiring approximate weights of 10 mg was compressed under a weight of 100 kg load force. Only one face of the tablet was exposed to the dissolution medium, which contained a 0.01 M acetate/phosphate buffer system to minimise perturbation of the experimental pH from dissolution of the drug.
Stirring of the solution was continuous and at a constant rate of 100 rpm. The absorption data was converted to absolute sample weights using previously determined, pH-dependent, molar extinction coefficients. An appropriate wavelength range was chosen to ensure that spectroscopic data with an absorption value of <1.3 was analysed, avoiding erroneous dissolution results due to saturation of the UV light source.

[3] = Primary particle size analysis by laser light diffraction (Mastersizer 2000); type: physicochemical; settings: micronised, mean n=3
Protocol: A Mastersizer 2000 fitted with a Scirocco 2000 dry powder dispersion unit (Malvern Instruments Ltd, UK) was used to analyse the primary particle size of the micronised RPL554 and salt variants. The salts (50 mg) were automatically sampled via a vibrating feed control at a feeder rate of 60% and dispersed in compressed air at a pressure of 3 bar.

[4] = Solubility of RPL554 and salts in pMDI propellant systems; type: physicochemical
Protocol: Quantitative assessment of the solubility of RPL554 and salt variants in the propellant systems of selected pMDI formulations (three replicates of each formulation) was performed. pMDIs were directly coupled to an adaptor fitted with a 0.20 μm filter unit connected, in series to a 21 G needle, which was inserted via a rubber septum, into a cooled multi-dose glass vial. A 19 G filter needle was inserted through the septum to aid evaporation of propellant from the vial. Prior to the filtration process the vial was cooled in a mixture of dry ice and acetone to ensure that the pressure within the vial was reduced in order to facilitate collection of the output from the pMDI. Ten consecutive actuations of the pMDI were fired through the filter and collected in the vial. Between actuations the canister was shaken for approximately 10 seconds. The pMDI unit was weighed before and after the filtering procedure. The filtrate was stored at room temperature and allowed to evaporate to dryness.
Samples were recovered by carefully rinsing the inside of the vials with 1 mL of recovery solution before transfer to HPLC vials for analysis. The estimated % of RPL554 solubilised within the canister was calculated from the starting mass of RPL554 within the canisters, which in turn was calculated using the theoretical molecular weight values of the RPL554 free base and salt variants shown in Table 13. The theoretical molecular weight estimates of the salts were provided by Verona.

[5] = RPL554 content and content uniformity of 1% w/w lactose powder blends; type: physicochemical; settings: for Measured Blend Content (% Theoretical): 1% w/w RPL554 variant: lactose powder blend, expressed as RPL554 base; for **Adjusted RPL554 Content per capsule: per 20 mg capsule of 1% w/w lactose blend, adjusted for measured blend content (% theoretical), as RPL554 base
Protocol: Batches (approximately 5 g) of 1% w/w RPL554 free base or salt variants: lactose blends were prepared. In brief, the RPL554 free base or salt plus a small quantity of lactose was passed through a 38 μm sieve. The sieved material plus the remaining lactose was mixed in a glass mortar prior to transfer to a stainless steel screw cap jar and further mixing (10 minutes at 46 rpm) conducted using a Turbula blender. The composition of the dry powder blend was 0.05 g API and 4.95 g lactose.
In order to determine the content uniformity of the blends, aliquots (approx. 20 mg) of powder were sampled from each blend, accurately weighed, and diluted to volume in 10 mL volumetric flasks with diluent. The flasks were sonicated for 3 minutes before samples were transferred to HPLC vials for analysis.

[6] = Aerosol performance of DPI formulations (Cyclohaler, NGI); type: physicochemical; settings: for †Measured Mass of 1% w/w Blend Delivered per capsule / ††RPL554 Emitted (μg) per capsule (B): Cyclohaler; for †Measured Mass of 1% w/w Blend Delivered per capsule: 5 capsules containing 20 mg powder blend, mass from weight change of capsule-loaded device; for ††RPL554 Emitted (μg) per capsule (B): NGI, mass determined from HPLC analysis of recovered samples; for ††RPL554 Emitted (μg) per capsule (B) / Calculated RPL554 Content (μg) per capsule (A): as RPL554 base; for Calculated RPL554 Content (μg) per capsule (A): calculated from delivered blend mass and measured blend content
Protocol: Capsules were hand filled with 20 mg of the 1% w/w RPL554 free base or salt variants: lactose blends, i.e. 200 μg salt per capsule, the fill weight of each capsule was recorded. Due to differences in the molecular weights of the RPL554 salt forms, the amount of RPL554 emitted per actuation varied as a function of molecular weight. The formulations were prepared with no adjustment for differences in molecular weight of the salts.
The powders were delivered via the Cyclohaler® DPI (PCH Pharmachemie, BV, The Netherlands). The Cyclohaler® DPI is a low resistance device and was operated at a flow rate of 90 L/min for 2.7 seconds. The cut off diameters for the NGI collection stages were calculated for the 90 L/min flow rate using the NGI User Guide (MSP Corporation, 2008).
The ED, FPD and FPF were determined from inertial impaction tests performed following the deposition of 5 capsules of each formulation into the NGI. For each capsule tested the combined weight of the Cyclohaler® and capsule was determined before and after operation to check that the dose had been delivered. The NGI was fitted with a pre-separator for these determinations. The central cup of the pre-separator was filled with 15 mL of diluent. Following deposition, the solution was recovered in a 20 mL volumetric flask and made up to volume with diluent. RPL554 was quantitatively recovered from the device, induction port and each of the NGI collection stages with 10 mL of diluent.
The volume of diluent used for each sample was selected to ensure RPL554 concentrations were above the limit of quantitation.

[7] = Physico-chemical characteristics of salt candidates: solubility in water, pH of aqueous suspension/solution, form post water maturation
[8] = HFA 134a: 227: 10% Ethanol: 0.1% Tween
[9] = in HFA 134, listed as Free Base
[10] = in HFA 134 with Ethanol/Tween, listed as Free Base

## COc1cc2c(cc1OC)-c1c/c(=N\c3c(C)cc(C)cc3C)n(CCNC(N)=O)c(=O)n1CC2 [Ethanesulfonate, RPL554 ethanesulfonate]
[1]
  Solubility as RPL554 (mg/ml) in 0.7 w/w % Saline: 1.62 mg/mL
  Solubility as RPL554 (mg/ml) in 0.9 w/w % Saline: 0.79 mg/mL
  Solubility as RPL554 (mg/ml) in 1.1 w/w % Saline: 1.27 mg/mL
  Solubility as RPL554 (mg/ml) in Water: 21.37 mg/mL
[2]; 2 hour experiments
  dissolution compared with free base / other salts: higher dissolution than the rest of the salts
[2]; at 5.7 min
  mass dissolved: 600 µg
[2]; at 13 min
  mass dissolved: 700 µg
[2]; listed as ethanesulfonate salt
  Mass of salt (μg) dissolved after 2 hours, Average: 355 µg
  Mass of salt (μg) dissolved after 2 hours, Test 1: 300 µg
  Mass of salt (μg) dissolved after 2 hours, Test 2: 410 µg
[3]
  D (0.1) (μm): 0.56 μm
  D (0.5) (μm): 1.43 μm
  D (0.9) (μm): 4.18 μm
[4]; in HFA 134
  Calculated RPL554 solubilised (%): 5.56%
  Calculated Solubilised RPL554 μg per 50 μL actuation: 9.03 µg
[4]; in HFA 134, BLQ = below limit of quantitation (0.06 μg/mL)
  Solubility RPL554: 126.81 µg/g
[4]; in HFA 134, BLQ = below limit of quantitation (0.06 μg/mL), listed as ethanesulfonate
  Solubility RPL554 (μg/g): quantifiable levels of solubility
[4]; in HFA 134 with Ethanol/Tween
  Estimated RPL554 solubilised (%): 10.96%
  Estimated Solubilised RPL554 μg per 50 μL actuation: 17.81 µg
  Solubility RPL554: 266.59 µg/g
[4]; in HFA 227
  Calculated RPL554 solubilised (%): BLQ
  Calculated Solubilised RPL554 μg per 50 μL actuation: BLQ
  Solubility RPL554 (μg/g): BLQ
[5]
  Measured Blend Content (% Theoretical): 98.79 % Theoretical
  **Adjusted RPL554 Content per capsule: 160.55 µg
[6]
  †Measured Mass of 1% w/w Blend Delivered per capsule: 20.18 mg
  ††RPL554 Emitted (μg) per capsule (B): 111.09 µg
  Calculated RPL554 Content (μg) per capsule (A): 162.00 µg
[7]; listed as Ethane sulfonic
  pH of aqueous suspension/solution: 3.04

## COc1cc2c(cc1OC)-c1c/c(=N\c3c(C)cc(C)cc3C)n(CCNC(N)=O)c(=O)n1CC2 [Sulfuric - ethanol solution]
[7]
  pH of aqueous suspension/solution: 3.28

## COc1cc2c(cc1OC)-c1c/c(=N\c3c(C)cc(C)cc3C)n(CCNC(N)=O)c(=O)n1CC2 [Naphthalene-2-sulfonate]
[1]
  Solubility as RPL554 (mg/ml) in 0.7 w/w % Saline: 0.17 mg/mL
  Solubility as RPL554 (mg/ml) in 0.9 w/w % Saline: 0.09 mg/mL
  Solubility as RPL554 (mg/ml) in 1.1 w/w % Saline: 0.09 mg/mL
  Solubility as RPL554 (mg/ml) in Water: 0.13 mg/mL

## COc1cc2c(cc1OC)-c1c/c(=N\c3c(C)cc(C)cc3C)n(CCNC(N)=O)c(=O)n1CC2 [Phosphate, RPL554 phosphate]
[1]
  Solubility as RPL554 (mg/ml) in 0.7 w/w % Saline: 7.22 mg/mL
  Solubility as RPL554 (mg/ml) in 0.9 w/w % Saline: 4.78 mg/mL
  Solubility as RPL554 (mg/ml) in 1.1 w/w % Saline: 2.86 mg/mL
  Solubility as RPL554 (mg/ml) in Water: 41.84 mg/mL
[7]; listed as Phosphoric
  pH of aqueous suspension/solution: 3.08

## COc1cc2c(cc1OC)-c1c/c(=N\c3c(C)cc(C)cc3C)n(CCNC(N)=O)c(=O)n1CC2 [RPL554, 9,10-dimethoxy-2-(2,4,6-trimethylphenylimino)-3-(N-carbamoyl-2-aminoethyl)-3,4,6,7-tetrahydro-2H-pyrimido[6,1-a]isoquinolin-4-one]
[2]; listed as free base
  Mass of salt (μg) dissolved after 2 hours, Average: 13.5 µg
  Mass of salt (μg) dissolved after 2 hours, Test 1: 10.0 µg
  Mass of salt (μg) dissolved after 2 hours, Test 2: 17.0 µg
[3]; listed as Free base
  D (0.1) (μm): 0.58 μm
  D (0.5) (μm): 1.37 μm
  D (0.9) (μm): 3.00 μm
[4]; [8]
  Estimated Solubilised RPL554 μg per 50 μL actuation: 1.06 µg
  Solubility RPL554: 16.11 µg/g
[4]; HFA 134a: 227: 10% Ethanol: 0.1% Tween, listed as Free base
  Estimated RPL554 solubilised (%): 0.53%
[4]; in HFA 134, BLQ = below limit of quantitation (0.06 μg/mL), listed as Free Base
  Solubility RPL554 (μg/g): BLQ
[4]; [9]
  Calculated RPL554 solubilised (%): BLQ
  Calculated Solubilised RPL554 μg per 50 μL actuation: BLQ
[4]; [10]
  Estimated RPL554 solubilised (%): 0.56%
  Estimated Solubilised RPL554 μg per 50 μL actuation: 1.12 µg
  Solubility RPL554: 16.45 µg/g
[5]; listed as Free Base
  Measured Blend Content (% Theoretical): 96.44 % Theoretical
  **Adjusted RPL554 Content per capsule: 192.87 µg
[6]; listed as Free Base
  †Measured Mass of 1% w/w Blend Delivered per capsule: 20.12 mg
  ††RPL554 Emitted (μg) per capsule (B): 133.59 µg
  Calculated RPL554 Content (μg) per capsule (A): 194.03 µg
